Where a name gives a salt, the structure may show the parent alone.
Biological target: T1, Adrenergic β2 (Homo sapiens, UniProt P07550)
T1 construct: Adherent H292 cells were removed from tissue culture flasks; endogenous in cells; host or cells: H292 cells
Assay: Adrenergic β2 mediated cAMP production in H292 cells (AlphaScreen cAMP detection)
Type: cell-based
Design: key to β2 Int Act: fraction of formoterol maximum activity (formoterol = 1)
Conditions: Intrinsic Activity as a fraction relative to the maximum activity determined for formoterol
Protocol: Adrenergic β2 Mediated cAMP Production
H292 cells were grown in 225 cm2 flasks incubator at 37° C., 5% CO2 in RPMI medium containing, 10% (v/v) FBS (foetal bovine serum) and 2 mM L-glutamine.
Adherent H292 cells were removed from tissue culture flasks by treatment with Accutase™ cell detachment solution for 15 minutes. Flasks were incubated for 15 minutes in a humidified incubator at 37° C., 5% CO2. Detached cells were re-suspended in RPMI media (containing 10% (v/v) FBS and 2 mM L-glutamine) at 1×10^6 cells per mL. 10000 cells in 100 μL were added to each well of a tissue-culture-treated 96-well plate and the cells incubated overnight in a humidified incubator at 37° C., 5% CO2. The culture media was removed and cells were washed twice with 100 μL assay buffer and replaced with 50 μL assay buffer (HBSS solution containing 10 mM HEPES pH7.4 and 5 mM glucose). Cells were rested at room temperature for 20 minutes after which time 25 μL of rolipram (1.2 mM made up in assay buffer containing 2.4% (v/v) dimethylsulphoxide) was added. Cells were incubated with rolipram for 10 minutes after which time test compounds were added and the cells were incubated for 60 minutes at room temperature. The final rolipram concentration in the assay was 300 μM and final vehicle concentration was 1.6% (v/v) dimethylsulphoxide. The reaction was stopped by removing supernatants, washing once with 100 μL assay buffer and replacing with 50 μL lysis buffer. The cell monolayer was frozen at −80° C. for 30 minutes (or overnight).
AlphaScreen™ cAMP Detection
The concentration of cAMP (cyclic adenosine monophosphate) in the cell lysate was determined using AlphaScreen™ methodology. The frozen cell plate was thawed for 20 minutes on a plate shaker then 10 μL of the cell lysate was transferred to a 96-well white plate. 40 μL of mixed AlphaScreen™ detection beads pre-incubated with biotinylated cAMP, was added to each well and the plate incubated at room temperature for 10 hours in the dark. The AlphaScreen™ signal was measured using an EnVision spectrophotometer (Perkin-Elmer Inc.) with the recommended manufacturer's settings. cAMP concentrations were determined by reference to a calibration curve determined in the same experiment using standard cAMP concentrations. Concentration response curves for agonists were constructed and data was fitted to a four parameter logistic equation to determine both the pEC50 and Intrinsic Activity. Intrinsic Activity was expressed as a fraction relative to the maximum activity determined for formoterol in each experiment.

T1 sequence (P07550 whole entry): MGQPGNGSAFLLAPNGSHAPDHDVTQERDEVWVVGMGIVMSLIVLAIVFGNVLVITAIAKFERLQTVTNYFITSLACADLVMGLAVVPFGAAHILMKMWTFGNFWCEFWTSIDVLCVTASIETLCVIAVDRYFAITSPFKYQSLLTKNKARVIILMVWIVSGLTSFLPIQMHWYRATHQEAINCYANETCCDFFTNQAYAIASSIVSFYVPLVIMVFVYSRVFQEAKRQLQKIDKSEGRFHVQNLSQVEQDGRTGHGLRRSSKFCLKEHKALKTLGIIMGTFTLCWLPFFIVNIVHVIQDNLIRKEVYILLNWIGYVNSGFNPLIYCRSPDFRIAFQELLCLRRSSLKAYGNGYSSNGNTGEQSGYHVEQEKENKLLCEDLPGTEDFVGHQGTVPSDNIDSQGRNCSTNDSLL

Row | SMILES | β2 Int Act
1 | CCCCN(CCNCCc1ccc(O)c2[nH]c(=O)ccc12)C(=O)CCOCCc1ccccc1 [Example 1, N-Butyl-N-(2-(2-(8-hydroxy-2-oxo-1,2-dihydroquinolin-5-yl)ethylamino)ethyl)-3-phenethoxypropanamide hydrochloride] | 0.9
2 | O=C(CCOCCc1ccccc1)N(CCNCCc1ccc(O)c2[nH]c(=O)ccc12)C1CCCCC1 [Example 2, N-Cyclohexyl-N-(2-(2-(8-hydroxy-2-oxo-1,2-dihydroquinolin-5-yl)ethylamino)ethyl)-3-phenethoxypropanamide] | 0.93
3 | O=C(CCNCCc1cccc(Cl)c1)N(CCNCCc1ccc(O)c2[nH]c(=O)ccc12)C1CCCCCC1 [Example 3, 3-(3-Chlorophenethylamino)-N-cycloheptyl-N-(2-(2-(8-hydroxy-2-oxo-1,2-dihydroquinolin-5-yl)ethylamino)ethyl)propanamide bis(trifluoroacetate)] | 0.82
4 | O=C(CCNCCc1ccc(Cl)cc1)N(CCNCCc1ccc(O)c2[nH]c(=O)ccc12)C1CCCCCC1 [Example 4, 3-(4-Chlorophenethylamino)-N-cycloheptyl-N-(2-(2-(8-hydroxy-2-oxo-1,2-dihydroquinolin-5-yl)ethylamino)ethyl)propanamide bis(trifluoroacetate)] | 0.79
5 | O=C(CCNCCc1cccc(F)c1)N(CCNCCc1ccc(O)c2[nH]c(=O)ccc12)C1CCCCCC1 [Example 5, N-Cycloheptyl-3-(3-fluorophenethylamino)-N-(2-(2-(8-hydroxy-2-oxo-1,2-dihydroquinolin-5-yl)ethylamino)ethyl)propanamide bis(trifluoroacetate)] | 0.82
6 | O=C(CCNCCc1ccc(F)cc1)N(CCNCCc1ccc(O)c2[nH]c(=O)ccc12)C1CCCCCC1 [Example 6, N-Cycloheptyl-3-(4-fluorophenethylamino)-N-(2-(2-(8-hydroxy-2-oxo-1,2-dihydroquinolin-5-yl)ethylamino)ethyl)propanamide bis(trifluoroacetate)] | 0.65
7 | O=C(CCNCCc1ccccc1)N(CCNCCc1ccc(O)c2[nH]c(=O)ccc12)C1CCCCCC1 [Example 7, N-Cycloheptyl-N-(2-(2-(8-hydroxy-2-oxo-1,2-dihydroquinolin-5-yl)ethylamino)ethyl)-3-(phenethylamino)propanamide bis(trifluoroacetate)] | 0.76
8 | Cc1cccc(CCNCCC(=O)N(CCNCCc2ccc(O)c3[nH]c(=O)ccc23)C2CCCCCC2)c1 [Example 8, N-Cycloheptyl-N-(2-(2-(8-hydroxy-2-oxo-1,2-dihydroquinolin-5-yl)ethylamino)ethyl)-3-(3-methylphenethylamino)propanamide bis(trifluoroacetate)] | 0.79
9 | C[C@H](CNCCC(=O)N(CCNCCc1ccc(O)c2[nH]c(=O)ccc12)C1CCCCCC1)c1ccccc1 [Example 9, (S)—N-Cycloheptyl-N-(2-(2-(8-hydroxy-2-oxo-1,2-dihydroquinolin-5-yl)ethylamino)ethyl)-3-(2-phenylpropylamino)propanamide bis(trifluoroacetate)] | 0.91
10 | O=C(CCNCCc1cc(F)cc(F)c1)N(CCNCCc1ccc(O)c2[nH]c(=O)ccc12)C1CCCCCC1 [Example 10, N-Cycloheptyl-3-(3,5-difluorophenethylamino)-N-(2-(2-(8-hydroxy-2-oxo-1,2-dihydroquinolin-5-yl)ethylamino)ethyl)propanamide bis(trifluoroacetate)] | 0.85
11 | CCOc1cccc(CCNCCC(=O)N(CCNCCc2ccc(O)c3[nH]c(=O)ccc23)C2CCCCCC2)c1 [Example 11, N-Cycloheptyl-3-(3-ethoxyphenethylamino)-N-(2-(2-(8-hydroxy-2-oxo-1,2-dihydroquinolin-5-yl)ethylamino)ethyl)propanamide bis(trifluoroacetate)] | 0.65
12 | O=C(CCNCCc1cccc(-c2ccccc2)c1)N(CCNCCc1ccc(O)c2[nH]c(=O)ccc12)C1CCCCCC1 [Example 12, 3-(2-(Biphenyl-3-yl)ethylamino)-N-cycloheptyl-N-(2-(2-(8-hydroxy-2-oxo-1,2-dihydroquinolin-5-yl)ethylamino)ethyl)propanamide bis(trifluoroacetate)] | 0.67
13 | O=C(CCNCCc1cccc(Cl)c1)N(CCNCCc1ccc(O)c2[nH]c(=O)ccc12)C1CCCCC1 [Example 13, 3-(3-Chlorophenethylamino)-N-cyclohexyl-N-(2-(2-(8-hydroxy-2-oxo-1,2-dihydroquinolin-5-yl)ethylamino)ethyl)propanamide bis(trifluoroacetate)] | 0.86
14 | O=C(CCNCCc1ccc(Cl)cc1)N(CCNCCc1ccc(O)c2[nH]c(=O)ccc12)C1CCCCC1 [Example 14, 3-(4-Chlorophenethylamino)-N-cyclohexyl-N-(2-(2-(8-hydroxy-2-oxo-1,2-dihydroquinolin-5-yl)ethylamino)ethyl)propanamide bis(trifluoroacetate)] | 0.88
15 | O=C(CCNCCc1cc(F)cc(F)c1)N(CCNCCc1ccc(O)c2[nH]c(=O)ccc12)C1CCCCC1 [Example 15, N-Cyclohexyl-3-(3,5-difluorophenethylamino)-N-(2-(2-(8-hydroxy-2-oxo-1,2-dihydroquinolin-5-yl)ethylamino)ethyl)propanamide bis(trifluoroacetate)] | 0.88
16 | O=C(CCNCCc1ccc(F)c(F)c1)N(CCNCCc1ccc(O)c2[nH]c(=O)ccc12)C1CCCCC1 [Example 16, N-Cyclohexyl-3-(3,4-difluorophenethylamino)-N-(2-(2-(8-hydroxy-2-oxo-1,2-dihydroquinolin-5-yl)ethylamino)ethyl)propanamide bis(trifluoroacetate)] | 0.85
17 | O=C(CCNCCc1cc(F)ccc1F)N(CCNCCc1ccc(O)c2[nH]c(=O)ccc12)C1CCCCC1 [Example 17, N-Cyclohexyl-3-(2,5-difluorophenethylamino)-N-(2-(2-(8-hydroxy-2-oxo-1,2-dihydroquinolin-5-yl)ethylamino)ethyl)propanamide bis(trifluoroacetate)] | 0.93
18 | O=C(CCNCCc1cccc(F)c1F)N(CCNCCc1ccc(O)c2[nH]c(=O)ccc12)C1CCCCC1 [Example 18, N-Cyclohexyl-3-(2,3-difluorophenethylamino)-N-(2-(2-(8-hydroxy-2-oxo-1,2-dihydroquinolin-5-yl)ethylamino)ethyl)propanamide bis(trifluoroacetate)] | 0.95
19 | O=C(CCNCCc1cccc(F)c1)N(CCNCCc1ccc(O)c2[nH]c(=O)ccc12)C1CCCCC1 [Example 19, N-Cyclohexyl-3-(3-fluorophenethylamino)-N-(2-(2-(8-hydroxy-2-oxo-1,2-dihydroquinolin-5-yl)ethylamino)ethyl)propanamide] | 0.87
20 | O=C1Cc2c(CCNCCN(C(=O)CCNCCc3cccc(F)c3)C3CCCCC3)ccc(O)c2N1 [Example 20, N-Cyclohexyl-3-(3-fluorophenethylamino)-N-(2-(2-(7-hydroxy-2-oxoindolin-4-yl)ethylamino)ethyl)propanamide dihydrobromide] | 0.78
21 | O=CNc1cc(CCNCCN(C(=O)CCNCCc2ccccc2)C2CCCCC2)ccc1O [Example 21, N-Cyclohexyl-N-(2-(3-formamido-4-hydroxyphenethylamino)ethyl)-3-(phenethylamino)propanamide] | 0.83
22 | O=C1COc2c(CCNCCN(C(=O)CCNCCc3ccccc3)C3CCCCC3)ccc(O)c2N1 [Example 23, N-Cyclohexyl-N-(2-(2-(5-hydroxy-3-oxo-3,4-dihydro-2H-benzo[b][1,4]oxazin-8-yl)ethylamino)ethyl)-3-(phenethylamino)propanamide bis(trifluoroacetate)] | 0.79
23 | O=C1COc2c(CCNCCN(C(=O)CCNCCc3ccccc3)C3CCCCCC3)ccc(O)c2N1 [Example 24, N-Cycloheptyl-N-(2-(2-(5-hydroxy-3-oxo-3,4-dihydro-2H-benzo[b][1,4]oxazin-8-yl)ethylamino)ethyl)-3-(phenethylamino)propanamide bis(trifluoroacetate)] | 0.85
24 | CCCC[C@@H](C)N(CCNCCc1ccc(O)c2c1OCC(=O)N2)C(=O)CCNCCc1ccccc1 [Example 25, (R)—N-(Hexan-2-yl)-N-(2-(2-(5-hydroxy-3-oxo-3,4-dihydro-2H-benzo[b][1,4]oxazin-8-yl)ethylamino)ethyl)-3-(phenethylamino)propanamide bis(trifluoroacetate)] | 0.9
